Results as given in patent US20110028566A1, “COMPOSITIONS AND PRODUCTS CONTAINING CYCLOALIPHATIC DIOL ANTIMICROBIAL AGENTS AND METHODS OF USING THE COMPOSITIONS AND PRODUCTS” (EASTMAN CHEMICAL COMPANY, priority 2009, published 2011).

Legend:
Assay in all cases: Microbial challenge testing in BPW
Type in all cases: cell-based
Candida albicans = system: Candida albicans
In short: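 C. albicans was grown in TSB with 1% dextrose at 22°C and harvested by gauze filtration and centrifugation. It was then adjusted by turbidity in pH 7.2 phosphate buffer and checked by hemocytometer and SDA plate counts. The inoculum was added to BPW (pH 7.0, 1% dextrose) containing test materials, giving 10^5–10^6 cfu/mL at time zero.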

Aeromonas sp. = system: Aeromonas sp.
In short: (§1)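 Bacteria, including ATCC and wild-type isolates from chemical products, were grown in tryptose soy broth with 1% dextrose for at least 96 hours. Inoculum was sized by plate count and turbidity (NTU) and added to test-material substrates to give 10^5 to 10^6 cfu/mL initially. Incubation ran 14 days at 35° C., then at room temperature.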

Bacillus subtilis = system: Bacillus subtilis
In short: as §1

Burkholderia cepacia = system: Burkholderia cepacia
In short: as §1

Escherichia coli = system: Escherichia coli
In short: as §1

Proteus vulgaris = system: Proteus vulgaris
In short: as §1

Pseudomonas aeruginosa = system: Pseudomonas aeruginosa
In short: as §1

[1] = system: Staphylococcus epidermidis
In short: as §1

CC1(C)C(O)C(C)(C)C1O (stereo not drawn) [TMCD, 2,2,4,4-tetramethyl-1,3-cyclobutanediol]
Grade code C. albicans (Candida albicans; 0.5%, 3 days incubation): 4 (1001 to 10,000 colonies (thus 10,000 cfu/mL to 100,000 cfu/mL)) | Grade code C. albicans (Candida albicans; 0.5%, 14 days incubation): 4 (1001 to 10,000 colonies (thus 10,000 cfu/mL to 100,000 cfu/mL)) | Grade code C. albicans (Candida albicans; 0.5%, 30 days incubation): 4 (1001 to 10,000 colonies (thus 10,000 cfu/mL to 100,000 cfu/mL)) | Grade code C. albicans (Candida albicans; 1.25%, 3 days incubation): 3 (101 to 1000 colonies (thus 1000 to 10,000 cfu/mL)) | Grade code C. albicans (Candida albicans; 1.25%, 14 days incubation): 4 (1001 to 10,000 colonies (thus 10,000 cfu/mL to 100,000 cfu/mL)) | Grade code C. albicans (Candida albicans; 1.25%, 30 days incubation): 4 (1001 to 10,000 colonies (thus 10,000 cfu/mL to 100,000 cfu/mL)) | Grade code C. albicans (Candida albicans; 2.5%, 3 days incubation): 3 (101 to 1000 colonies (thus 1000 to 10,000 cfu/mL)) | Grade code C. albicans (Candida albicans; 2.5%, 14 days incubation): 2 (52 to 100 colonies counted (thus 520 to 1000 cfu/mL)) | Grade code C. albicans (Candida albicans; 2.5%, 30 days incubation): 2 (52 to 100 colonies counted (thus 520 to 1000 cfu/mL)) | Grade code Aeromonas sp (Aeromonas sp.; 0.5%, 3 days incubation): 5 (More than 10,000 colonies estimated (thus >100,000 cfu/mL)) | Grade code Aeromonas sp (Aeromonas sp.; 0.5%, 14 days incubation): 4 (1001 to 10,000 colonies (thus 10,000 cfu/mL to 100,000 cfu/mL)) | Grade code Aeromonas sp (Aeromonas sp.; 0.5%, 30 days incubation): 4 (1001 to 10,000 colonies (thus 10,000 cfu/mL to 100,000 cfu/mL)) | Grade code Aeromonas sp (Aeromonas sp.; 1.25%, 3 days incubation): 4 (1001 to 10,000 colonies (thus 10,000 cfu/mL to 100,000 cfu/mL)) | Grade code Aeromonas sp (Aeromonas sp.; 1.25%, 14 days incubation): 4 (1001 to 10,000 colonies (thus 10,000 cfu/mL to 100,000 cfu/mL)) | Grade code Aeromonas sp (Aeromonas sp.; 1.25%, 30 days incubation): 4 (1001 to 10,000 colonies (thus 10,000 cfu/mL to 100,000 cfu/mL)) | Grade code Aeromonas sp (Aeromonas sp.; 2.5%, 3 days incubation): 4 (1001 to 10,000 colonies (thus 10,000 cfu/mL to 100,000 cfu/mL)) | Grade code Aeromonas sp (Aeromonas sp.; 2.5%, 14 days incubation): 2 (52 to 100 colonies counted (thus 520 to 1000 cfu/mL)) | Grade code Aeromonas sp (Aeromonas sp.; 2.5%, 30 days incubation): 3 (101 to 1000 colonies (thus 1000 to 10,000 cfu/mL)) | Grade code B. subtilis (Bacillus subtilis; 0.5%, 3 days incubation): 4 (1001 to 10,000 colonies (thus 10,000 cfu/mL to 100,000 cfu/mL)) | Grade code B. subtilis (Bacillus subtilis; 0.5%, 14 days incubation): 4 (1001 to 10,000 colonies (thus 10,000 cfu/mL to 100,000 cfu/mL)) | Grade code B. subtilis (Bacillus subtilis; 0.5%, 30 days incubation): 4 (1001 to 10,000 colonies (thus 10,000 cfu/mL to 100,000 cfu/mL)) | Grade code B. subtilis (Bacillus subtilis; 1.25%, 3 days incubation): 4 (1001 to 10,000 colonies (thus 10,000 cfu/mL to 100,000 cfu/mL)) | Grade code B. subtilis (Bacillus subtilis; 1.25%, 14 days incubation): 4 (1001 to 10,000 colonies (thus 10,000 cfu/mL to 100,000 cfu/mL)) | Grade code B. subtilis (Bacillus subtilis; 1.25%, 30 days incubation): 4 (1001 to 10,000 colonies (thus 10,000 cfu/mL to 100,000 cfu/mL)) | Grade code B. subtilis (Bacillus subtilis; 2.5%, 3 days incubation): 4 (1001 to 10,000 colonies (thus 10,000 cfu/mL to 100,000 cfu/mL)) | Grade code B. subtilis (Bacillus subtilis; 2.5%, 14 days incubation): 4 (1001 to 10,000 colonies (thus 10,000 cfu/mL to 100,000 cfu/mL)) | Grade code B. subtilis (Bacillus subtilis; 2.5%, 30 days incubation): 4 (1001 to 10,000 colonies (thus 10,000 cfu/mL to 100,000 cfu/mL)) | Grade code B. cepacia (Burkholderia cepacia; 0.5%, 3 days incubation): 4 (1001 to 10,000 colonies (thus 10,000 cfu/mL to 100,000 cfu/mL)) | Grade code B. cepacia (Burkholderia cepacia; 0.5%, 14 days incubation): 4 (1001 to 10,000 colonies (thus 10,000 cfu/mL to 100,000 cfu/mL)) | Grade code B. cepacia (Burkholderia cepacia; 0.5%, 30 days incubation): 4 (1001 to 10,000 colonies (thus 10,000 cfu/mL to 100,000 cfu/mL)) | Grade code B. cepacia (Burkholderia cepacia; 1.25%, 3 days incubation): 3 (101 to 1000 colonies (thus 1000 to 10,000 cfu/mL)) | Grade code B. cepacia (Burkholderia cepacia; 1.25%, 14 days incubation): 2 (52 to 100 colonies counted (thus 520 to 1000 cfu/mL)) | Grade code B. cepacia (Burkholderia cepacia; 1.25%, 30 days incubation): 4 (1001 to 10,000 colonies (thus 10,000 cfu/mL to 100,000 cfu/mL)) | Grade code B. cepacia (Burkholderia cepacia; 2.5%, 3 days incubation): 1 (1 to 51 colonies counted (thus 10 to 510 cfu/mL)) | Grade code B. cepacia (Burkholderia cepacia; 2.5%, 14 days incubation): 0 (No growth detected or <1 colony (thus <10 cfu/mL)) | Grade code B. cepacia (Burkholderia cepacia; 2.5%, 30 days incubation): 0 (No growth detected or <1 colony (thus <10 cfu/mL)) | Grade code E. coli (Escherichia coli; 0.5%, 3 days incubation): 5 (More than 10,000 colonies estimated (thus >100,000 cfu/mL)) | Grade code E. coli (Escherichia coli; 0.5%, 14 days incubation): 4 (1001 to 10,000 colonies (thus 10,000 cfu/mL to 100,000 cfu/mL)) | Grade code E. coli (Escherichia coli; 0.5%, 30 days incubation): 4 (1001 to 10,000 colonies (thus 10,000 cfu/mL to 100,000 cfu/mL)) | Grade code E. coli (Escherichia coli; 1.25%, 3 days incubation): 4 (1001 to 10,000 colonies (thus 10,000 cfu/mL to 100,000 cfu/mL)) | Grade code E. coli (Escherichia coli; 1.25%, 14 days incubation): 4 (1001 to 10,000 colonies (thus 10,000 cfu/mL to 100,000 cfu/mL)) | Grade code E. coli (Escherichia coli; 1.25%, 30 days incubation): 4 (1001 to 10,000 colonies (thus 10,000 cfu/mL to 100,000 cfu/mL)) | Grade code E. coli (Escherichia coli; 2.5%, 3 days incubation): 4 (1001 to 10,000 colonies (thus 10,000 cfu/mL to 100,000 cfu/mL)) | Grade code E. coli (Escherichia coli; 2.5%, 14 days incubation): 4 (1001 to 10,000 colonies (thus 10,000 cfu/mL to 100,000 cfu/mL)) | Grade code E. coli (Escherichia coli; 2.5%, 30 days incubation): 4 (1001 to 10,000 colonies (thus 10,000 cfu/mL to 100,000 cfu/mL)) | Grade code P. vulqaris (Proteus vulgaris; 0.5%, 3 days incubation): 4 (1001 to 10,000 colonies (thus 10,000 cfu/mL to 100,000 cfu/mL)) | Grade code P. vulqaris (Proteus vulgaris; 0.5%, 13 days incubation): 4 (1001 to 10,000 colonies (thus 10,000 cfu/mL to 100,000 cfu/mL)) | Grade code P. vulqaris (Proteus vulgaris; 0.5%, 30 days incubation): 4 (1001 to 10,000 colonies (thus 10,000 cfu/mL to 100,000 cfu/mL)) | Grade code P. vulqaris (Proteus vulgaris; 1.25%, 3 days incubation): 3 (101 to 1000 colonies (thus 1000 to 10,000 cfu/mL)) | Grade code P. vulqaris (Proteus vulgaris; 1.25%, 13 days incubation): 2 (52 to 100 colonies counted (thus 520 to 1000 cfu/mL)) | Grade code P. vulqaris (Proteus vulgaris; 1.25%, 30 days incubation): 0 (No growth detected or <1 colony (thus <10 cfu/mL)) | Grade code P. vulqaris (Proteus vulgaris; 2.5%, 3 days incubation): 4 (1001 to 10,000 colonies (thus 10,000 cfu/mL to 100,000 cfu/mL)) | Grade code P. vulqaris (Proteus vulgaris; 2.5%, 13 days incubation): 1 (1 to 51 colonies counted (thus 10 to 510 cfu/mL)) | Grade code P. vulqaris (Proteus vulgaris; 2.5%, 30 days incubation): 0 (No growth detected or <1 colony (thus <10 cfu/mL)) | Grade code P. aeruginosa (Pseudomonas aeruginosa; 0.5%, 3 days incubation): 4 (1001 to 10,000 colonies (thus 10,000 cfu/mL to 100,000 cfu/mL)) | Grade code P. aeruginosa (Pseudomonas aeruginosa; 0.5%, 13 days incubation): 4 (1001 to 10,000 colonies (thus 10,000 cfu/mL to 100,000 cfu/mL)) | Grade code P. aeruginosa (Pseudomonas aeruginosa; 0.5%, 30 days incubation): 4 (1001 to 10,000 colonies (thus 10,000 cfu/mL to 100,000 cfu/mL)) | Grade code P. aeruginosa (Pseudomonas aeruginosa; 1.25%, 3 days incubation): 4 (1001 to 10,000 colonies (thus 10,000 cfu/mL to 100,000 cfu/mL)) | Grade code P. aeruginosa (Pseudomonas aeruginosa; 1.25%, 13 days incubation): 4 (1001 to 10,000 colonies (thus 10,000 cfu/mL to 100,000 cfu/mL)) | Grade code P. aeruginosa (Pseudomonas aeruginosa; 1.25%, 30 days incubation): 4 (1001 to 10,000 colonies (thus 10,000 cfu/mL to 100,000 cfu/mL)) | Grade code P. aeruginosa (Pseudomonas aeruginosa; 2.5%, 3 days incubation): 4 (1001 to 10,000 colonies (thus 10,000 cfu/mL to 100,000 cfu/mL)) | Grade code P. aeruginosa (Pseudomonas aeruginosa; 2.5%, 13 days incubation): 3 (101 to 1000 colonies (thus 1000 to 10,000 cfu/mL)) | Grade code P. aeruginosa (Pseudomonas aeruginosa; 2.5%, 30 days incubation): 4 (1001 to 10,000 colonies (thus 10,000 cfu/mL to 100,000 cfu/mL)) | Grade code S. epidermidis ([1]; 0.5%, 3 days incubation): 4 (1001 to 10,000 colonies (thus 10,000 cfu/mL to 100,000 cfu/mL)) | Grade code S. epidermidis ([1]; 0.5%, 13 days incubation): 4 (1001 to 10,000 colonies (thus 10,000 cfu/mL to 100,000 cfu/mL)) | Grade code S. epidermidis ([1]; 0.5%, 30 days incubation): 4 (1001 to 10,000 colonies (thus 10,000 cfu/mL to 100,000 cfu/mL)) | Grade code S. epidermidis ([1]; 1.25%, 3 days incubation): 2 (52 to 100 colonies counted (thus 520 to 1000 cfu/mL)) | Grade code S. epidermidis ([1]; 1.25%, 13 days incubation): 3 (101 to 1000 colonies (thus 1000 to 10,000 cfu/mL)) | Grade code S. epidermidis ([1]; 1.25%, 30 days incubation): 4 (1001 to 10,000 colonies (thus 10,000 cfu/mL to 100,000 cfu/mL)) | Grade code S. epidermidis ([1]; 2.5%, 3 days incubation): 2 (52 to 100 colonies counted (thus 520 to 1000 cfu/mL)) | Grade code S. epidermidis ([1]; 2.5%, 13 days incubation): 2 (52 to 100 colonies counted (thus 520 to 1000 cfu/mL)) | Grade code S. epidermidis ([1]; 2.5%, 30 days incubation): 2 (52 to 100 colonies counted (thus 520 to 1000 cfu/mL))
